Laboratory results as given in patent US3949090A, “Methods and compositions for improving feed efficiency in ruminants using dithiooxamide” (SmithKline Corporation, priority 1974, dated 1976).
Like-named read-outs stand apart in the source and are kept apart here.

Tests used:
[1] = test system: gas production (strained rumen fluid); assay: In vitro gas production; format: cell-based; details: Table III, control 65
Method: (§1) The in vitro fermentation system contained 75 ml. strained rumen fluid, 200 mg, alfalfa hay, 800 mg. of a crude protein grain mixture, 0.8 to 1.6 mM of each of 10 essential amino acids (threonine, valine, methionine, isoleucine, leucine, phelylalanine, tryptophan, lysine and arginine), and 0 to 50 ppm dithiooxamide. Flasks were incubated for 4 hours with effects upon amino acid deamination assessed as described for the previous system. Using standard chromatographic techniques, effects upon methanogenesis and upon the pattern of volatile fatty acid production were determined.
(§2) ^1 In vitro fermentation system contained 75 ml. strained rumen fluid
(§3) 200 mg. alfalfa hay, 800 mg. grain mixture (16% crude protein) and 0.8 mM
(§4) of each of ten essential amino acids. Flasks were incubated for four

[2] = test system: volatile fatty acid production (strained rumen fluid); assay: In vitro volatile fatty acid production; format: cell-based
Method: as §1, §2
(§5) 200 mg. alfalfa hay, 800 mg. grain mixture (16% crude protein) and 1.6 mM
as §4, §3

[3] = test system: Microbial Deaminase (strained rumen fluid); assay: In vitro effects upon amino acid deamination (rumen fluid, starch, urea; 5 hours); format: cell-based
Method: The in vitro fermentation system contained 50 ml. strained rumen fluid, 8 mM urea, 1 g. starch, 1.8 mM of each of 10 essential amino acids (threonine, valine, methionine, isoleucine, leucine, phenylalanine, tryptophan, lysine and arginine) and 0 to 100 ppm dithiooxamide. Flasks were incubated under a CO2 atmosphere for 5 hours with total amino acids assayed prior to and at the end of the fermentation by the method of Borchers [Anal. Chem., 31, (7):1179]. Percent apparent inhibition of deamination in treated flasks was calculated relative to control flasks without added dithiooxamide. Apparent inhibition of deamination in excess of 100% may be observed because of the liberation of amino acids from proteinaceous materials contained in rumen fluid.
Inhibition of deamination (%) =
Control deamination (%) - Treated deamination (%)
Control deamination (%)
^1 In vitro fermentation system contained 50 ml. strained rumen fluid
1 g. starch, 8 mM urea and 1.8 mM of each of ten essential amino acids.
Flasks were incubated under a CO2 atmosphere for five hours.

[4] = test system: methanogenesis (strained rumen fluid); assay: In vitro effects upon methanogenesis; format: cell-based
Method: as §1, §2, §5, §4, §3

[5] = test system: rumen microbial deamination; assay: In vivo effects upon amino acid deamination in rumen fistulated cattle; details: for Quantity of amino acids in the rumen: per rumen
Method: Rumen fistulated cattle were fed a pelleted 60% concentrate diet. To conduct the test, animals received ruminal doses of a mixture of free amino acids to provide 338 mMoles of total free amino acids (threonine 4.5 g., methionine 6.0 g., isoleucine 5.0 g., leucine 5.0 g., phenylalanine 6.5 g., lysine 7.5 g., histidine 8.5 g.), 50 g. of a soluble rumen marker, polyethylene glycol (PEG) and 0 to 4 g. dithiooxamide. Total amino acid concentration was determined by the procedure of Borchers [Anal. Chem., 31 (7): 1179]. Activity was assessed as changes, with respect to time, of the quantity of total free amino acids in the rumen. Inhibition of rumen microbial deamination results in a greater quantity of free amino acids in the rumen.
^1 Polyethylene glycol was used as a marker to estimate rumen volume
and correct for changes in amino acid concentration due to changes in
rumen volume during the six hour experiment.
^2 mMoles of amino acid per rumen.

[6] = test system: methanogenesis; assay: In vivo effects upon methanogenesis in cattle; details: for Methane Inhibition: 360 kg cattle, at least 7 days
Source text: Cattle were fed 5 to 7 kg./day of a 70% concentrate ration which was medicated to supply 0 to 2 g. of dithiooxamide per animal daily. After feeding medicated rations for at least 7 days, gas samples were obtained by rumen puncture for chromatographic assay of methane.
^1 360 Kg. Cattle fed either 5, 6 or 7 kg./day.

[7] = test system: Microbial Deaminase (strained rumen fluid); assay: In vitro microbial deaminase inhibition (rumen fluid, alfalfa hay, grain mixture; 4 hours); format: cell-based; details: for MDI (%): 240 min
Method: as §1, §2, §5, §4, §3

[8] = Table III, varying concentrations of cobalt and copper

NC(=S)C(N)=S [Dithiooxamide, dithiooxamide]
Gas Production ([1]; dithiooxamide 25 ppm + cobalt sulfate .013 ppm): 82 cc | Gas Production ([1]; dithiooxamide 25 ppm + cobalt sulfate .066 ppm): 86 cc | Gas Production ([1]; dithiooxamide 25 ppm + copper sulfate .067 ppm): 85 cc | Gas Production ([1]; dithiooxamide 25 ppm + copper sulfate .333 ppm): 83 cc | Gas Production ([1]; dithiooxamide 25 ppm, no added cobalt or copper): 85 cc | pattern of volatile fatty acids (in words) ([2]; Table II): increased molar percentages of propionate and butyrate at the expense of acetate | volatile fatty acid carbon (in words) ([2]; Table II): slight decrease in volatile fatty acid carbon | Volatile Fatty Acids (molar distribution, %): Propionate ([2]; Table II, 5 ppm dithiooxamide, 4 h, control 9): 10% | Volatile Fatty Acids (molar distribution, %): Butyrate ([2]; Table II, 5 ppm dithiooxamide, 4 h, control 22): 24% | Volatile Fatty Acids (molar distribution, %): Acetate ([2]; Table II, 5 ppm dithiooxamide, 4 h, control 69): 66% | Volatile Fatty Acid Carbon ([2]; Table II, 5 ppm dithiooxamide, 4 h, control 128): 127 μ moles/ml. | Volatile Fatty Acids (molar distribution, %): Propionate ([2]; Table II, 10 ppm dithiooxamide, 4 h, control 9): 15% | Volatile Fatty Acids (molar distribution, %): Butyrate ([2]; Table II, 10 ppm dithiooxamide, 4 h, control 22): 36% | Volatile Fatty Acids (molar distribution, %): Acetate ([2]; Table II, 10 ppm dithiooxamide, 4 h, control 69): 49% | Volatile Fatty Acid Carbon ([2]; Table II, 10 ppm dithiooxamide, 4 h, control 128): 108 μ moles/ml. | Volatile Fatty Acids (molar distribution, %): Propionate ([2]; Table II, 25 ppm dithiooxamide, 4 h, control 9): 15% | Volatile Fatty Acids (molar distribution, %): Butyrate ([2]; Table II, 25 ppm dithiooxamide, 4 h, control 22): 36% | Volatile Fatty Acids (molar distribution, %): Acetate ([2]; Table II, 25 ppm dithiooxamide, 4 h, control 69): 49% | Volatile Fatty Acid Carbon ([2]; Table II, 25 ppm dithiooxamide, 4 h, control 128): 108 μ moles/ml. | Volatile Fatty Acids (molar distribution, %): Propionate ([2]; Table II, 50 ppm dithiooxamide, 4 h, control 9): 15% | Volatile Fatty Acids (molar distribution, %): Butyrate ([2]; Table II, 50 ppm dithiooxamide, 4 h, control 22): 38% | Volatile Fatty Acids (molar distribution, %): Acetate ([2]; Table II, 50 ppm dithiooxamide, 4 h, control 69): 47% | Volatile Fatty Acid Carbon ([2]; Table II, 50 ppm dithiooxamide, 4 h, control 128): 102 μ moles/ml. | patterns of volatile fatty acid production (in words) ([2]; Table III): Alterations in patterns of volatile fatty acid production were again observed | total volatile fatty acid carbon production (in words) ([2]; Table III): no effects on total volatile fatty acid carbon production | Volatile Fatty Acids (molar distribution, %): Propionate ([2]; Table III, dithiooxamide 25 ppm + cobalt sulfate .013 ppm, control 15): 20% | Volatile Fatty Acids (molar distribution, %): Butyrate ([2]; Table III, dithiooxamide 25 ppm + cobalt sulfate .013 ppm, control 21): 39% | Volatile Fatty Acids (molar distribution, %): Acetate ([2]; Table III, dithiooxamide 25 ppm + cobalt sulfate .013 ppm, control 64): 41% | Volatile Fatty Acid Carbon ([2]; Table III, dithiooxamide 25 ppm + cobalt sulfate .013 ppm, control 125): 127 μ moles/ml. | Volatile Fatty Acids (molar distribution, %): Propionate ([2]; Table III, dithiooxamide 25 ppm + cobalt sulfate .066 ppm, control 15): 20% | Volatile Fatty Acids (molar distribution, %): Butyrate ([2]; Table III, dithiooxamide 25 ppm + cobalt sulfate .066 ppm, control 21): 37% | Volatile Fatty Acids (molar distribution, %): Acetate ([2]; Table III, dithiooxamide 25 ppm + cobalt sulfate .066 ppm, control 64): 43% | Volatile Fatty Acid Carbon ([2]; Table III, dithiooxamide 25 ppm + cobalt sulfate .066 ppm, control 125): 133 μ moles/ml. | Volatile Fatty Acids (molar distribution, %): Propionate ([2]; Table III, dithiooxamide 25 ppm + copper sulfate .067 ppm, control 15): 21% | Volatile Fatty Acids (molar distribution, %): Butyrate ([2]; Table III, dithiooxamide 25 ppm + copper sulfate .067 ppm, control 21): 41% | Volatile Fatty Acids (molar distribution, %): Acetate ([2]; Table III, dithiooxamide 25 ppm + copper sulfate .067 ppm, control 64): 38% | Volatile Fatty Acid Carbon ([2]; Table III, dithiooxamide 25 ppm + copper sulfate .067 ppm, control 125): 114 μ moles/ml. | Volatile Fatty Acids (molar distribution, %): Propionate ([2]; Table III, dithiooxamide 25 ppm + copper sulfate .333 ppm, control 15): 21% | Volatile Fatty Acids (molar distribution, %): Butyrate ([2]; Table III, dithiooxamide 25 ppm + copper sulfate .333 ppm, control 21): 38% | Volatile Fatty Acids (molar distribution, %): Acetate ([2]; Table III, dithiooxamide 25 ppm + copper sulfate .333 ppm, control 64): 41% | Volatile Fatty Acid Carbon ([2]; Table III, dithiooxamide 25 ppm + copper sulfate .333 ppm, control 125): 132 μ moles/ml. | Volatile Fatty Acids (molar distribution, %): Propionate ([2]; Table III, dithiooxamide 25 ppm, no added cobalt or copper, control 15): 21% | Volatile Fatty Acids (molar distribution, %): Butyrate ([2]; Table III, dithiooxamide 25 ppm, no added cobalt or copper, control 21): 40% | Volatile Fatty Acids (molar distribution, %): Acetate ([2]; Table III, dithiooxamide 25 ppm, no added cobalt or copper, control 64): 39% | Volatile Fatty Acid Carbon ([2]; Table III, dithiooxamide 25 ppm, no added cobalt or copper, control 125): 119 μ moles/ml. | inhibition at 2.5 ppm ([3]; 2.5 ppm dithiooxamide, 5 h, 1 replication, read-out: MDI (%)): 0% | inhibition at 5 ppm ([3]; 5 ppm dithiooxamide, 5 h, 4 replications, read-out: MDI (%)): 35% | inhibition at 7.5 ppm ([3]; 7.5 ppm dithiooxamide, 5 h, 1 replication, read-out: MDI (%)): 71% | inhibition at 10 ppm ([3]; 10 ppm dithiooxamide, 5 h, 4 replications, read-out: MDI (%)): 57% | inhibition at 25 ppm ([3]; 25 ppm dithiooxamide, 5 h, 4 replications, read-out: MDI (%)): 62% | inhibition at 50 ppm ([3]; 50 ppm dithiooxamide, 5 h, 2 replications, read-out: MDI (%)): 84% | inhibition at 75 ppm ([3]; 75 ppm dithiooxamide, 5 h, 1 replication, read-out: MDI (%)): 100% | inhibition at 100 ppm ([3]; 100 ppm dithiooxamide, 5 h, 1 replication, read-out: MDI (%)): 117% | inhibition of microbial deamination of amino acids (in words) ([3]; Table I, 7.5 to 100 ppm): effective inhibitor of microbial deamination of amino acids over a wide concentration range | methane production (in words) ([4]; Table II): would suppress methane production | inhibition at 5 ppm ([4]; Table II, 5 ppm dithiooxamide, 4 h, read-out: Methane Inhibition (%)): 12% | inhibition at 10 ppm ([4]; Table II, 10 ppm dithiooxamide, 4 h, read-out: Methane Inhibition (%)): 88% | inhibition at 25 ppm ([4]; Table II, 25 ppm dithiooxamide, 4 h, read-out: Methane Inhibition (%)): 96% | inhibition at 50 ppm ([4]; Table II, 50 ppm dithiooxamide, 4 h, read-out: Methane Inhibition (%)): 99% | Methane Inhibition (%) ([4]; Table III, dithiooxamide 25 ppm + cobalt sulfate .066 ppm): 93% | inhibition at 25 ppm ([4]; Table III, dithiooxamide 25 ppm, no added cobalt or copper, read-out: Methane Inhibition (%)): 92% | methane inhibition on adding cobalt and copper (in words) [4, 8]: not affected by adding varying concentrations of cobalt and copper | Quantity of amino acids in the rumen ([5]; 0.5 g dithiooxamide ruminal dose, 0 h after dosing, control 338): 338 mmol | Quantity of amino acids in the rumen ([5]; 0.5 g dithiooxamide ruminal dose, 3 h after dosing, control 152): 192 mmol | Quantity of amino acids in the rumen ([5]; 0.5 g dithiooxamide ruminal dose, 6 h after dosing, control 47): 78 mmol | Quantity of amino acids in the rumen ([5]; 1.0 g dithiooxamide ruminal dose, 0 h after dosing, control 338): 338 mmol | Quantity of amino acids in the rumen ([5]; 1.0 g dithiooxamide ruminal dose, 3 h after dosing, control 152): 198 mmol | Quantity of amino acids in the rumen ([5]; 1.0 g dithiooxamide ruminal dose, 6 h after dosing, control 47): 162 mmol | Quantity of amino acids in the rumen ([5]; 2.0 g dithiooxamide ruminal dose, 0 h after dosing, control 338): 338 mmol | Quantity of amino acids in the rumen ([5]; 2.0 g dithiooxamide ruminal dose, 3 h after dosing, control 152): 209 mmol | Quantity of amino acids in the rumen ([5]; 2.0 g dithiooxamide ruminal dose, 6 h after dosing, control 47): 218 mmol | Quantity of amino acids in the rumen ([5]; 4.0 g dithiooxamide ruminal dose, 0 h after dosing, control 338): 338 mmol | Quantity of amino acids in the rumen ([5]; 4.0 g dithiooxamide ruminal dose, 3 h after dosing, control 152): 270 mmol | Quantity of amino acids in the rumen ([5]; 4.0 g dithiooxamide ruminal dose, 6 h after dosing, control 47): 308 mmol | prevention of degradation of free amino acids in the rumen (in words) ([5]; Table IV): effective agent in preventing his degradation and increasing the size of the pool of amino acids in the rumen | Methane Inhibition ([6]; 1.0 g./day dithiooxamide in feed): 51 | Methane Inhibition ([6]; 2.0 g./day dithiooxamide in feed): 85 | Methane Inhibition ([6]; .5 g./day dithiooxamide in feed): 25 | antimethanogenic activity (in words) ([6]; Table V): verified the antimethanogenic activity | inhibition at 5 ppm ([7]; 4 h, Table II, 5 ppm dithiooxamide, 4 h, read-out: MDI (%)): 6% | inhibition at 10 ppm ([7]; 4 h, Table II, 10 ppm dithiooxamide, 4 h, read-out: MDI (%)): 68% | inhibition at 25 ppm ([7]; 4 h, Table II, 25 ppm dithiooxamide, 4 h, read-out: MDI (%)): 65% | inhibition at 50 ppm ([7]; 4 h, Table II, 50 ppm dithiooxamide, 4 h, read-out: MDI (%)): 94% | inhibition at 25 ppm ([7]; 4 h, Table III, dithiooxamide 25 ppm, no added cobalt or copper, read-out: MDI (%)): 78% | inhibition of microbial deamination of amino acids (in words) ([7]; Table II): effective inhibitor of microbial deamination of amino acids | MDI (%) ([7]; Table III, dithiooxamide 25 ppm + cobalt sulfate .013 ppm): 81% | MDI (%) ([7]; Table III, dithiooxamide 25 ppm + copper sulfate .333 ppm): 90% | Deaminase inhibition on adding cobalt and copper (in words) [7, 8]: not affected by adding varying concentrations of cobalt and copper
